This is an account of results in ChEMBL document CHEMBL3045334, “Microwave-assisted synthesis and evaluation of naphthalimides derivatives as free radical scavengers” (Med Chem Res, 2011).

Each structure is given as a SMILES string.

The first test concerns Radical scavenging activity. Briefly: Antioxidant activity assessed as DPPH radical scavenging activity. The class given is functional.
Details: not given; call rule not given here
For orientation: Loss of DPPH colour is used to gauge radical scavenging.
Usually IC50 stands for the point on the concentration scale where inhibition reaches its midpoint. `O=C1OC(=O)c2ccc(Br)c3cccc1c23`: the IC50 result is “Not Active”.

The same test, now with this note: read-out: IC50.
Turning to `Cc1cc(C(C)(C)C)c(O)c(C(C)(C)C)c1` [BUTYLATED HYDROXYTOLUENE], the IC50 was found to be 65.8 µM.
Same read-out and setting: next, `CCCCNc1ccc2c3c(cccc13)C(=O)N(C[C@@]1(C)CCC[C@]3(C)c4ccc(C(C)C)cc4CCC13)C2=O` (some centres not stated): 206 µM; `O=C1c2cccc3cccc(c23)C(=O)N1c1ccccc1`: 130 µM; `O=C1NC(=O)c2cccc3cccc1c23`: 149 µM.
Consider `O=C1c2cccc3c(Br)ccc(c23)C(=O)N1Cc1ccccc1`, for which the IC50 is 238 µM.
As to `CCCNc1c([N+](=O)[O-])cc2c3c(cccc13)C(=O)N(CCC)C2=O`, the IC50 amounted to 231 µM.
For `CC(C)c1ccc2c(c1)CCC1[C@@](C)(CN3C(=O)c4cccc5c(NCCO)ccc(c45)C3=O)CCC[C@]21C` (some centres not stated), the IC50 turned out to be 221 µM.
As to `O=C1c2cccc3c(NCc4ccccc4)ccc(c23)C(=O)N1Cc1ccccc1`, the IC50 amounted to 84.6 µM.
In the case of `CCCCNc1c([N+](=O)[O-])cc2c3c(cccc13)C(=O)N(CCCC)C2=O`, the IC50 was found to be 215 µM.
Turning to `CC(C)c1ccc2c(c1)CCC1[C@@](C)(CN3C(=O)c4cccc5c(NCc6ccccc6)ccc(c45)C3=O)CCC[C@]21C` (some centres not stated), the half-maximal inhibitory concentration (IC50) is 61.9 µM.
Regarding `CCCNc1ccc2c3c(cccc13)C(=O)N(C[C@@]1(C)CCC[C@]3(C)c4ccc(C(C)C)cc4CCC13)C2=O` (some centres not stated), the IC50 is 210 µM.
On to `O=C1c2cccc3c(NCCO)c([N+](=O)[O-])cc(c23)C(=O)N1CCO`, for which the IC50 was found to be 231 µM.
Turning to `O=C1c2cccc3cccc(c23)C(=O)N1CCO`, the IC50 amounted to 155 µM.
Take `CCCNc1ccc2c3c(cccc13)C(=O)N(CCC)C2=O`: the IC50 stood at 351 µM.
Regarding `CCCCN1C(=O)c2cccc3cccc(c23)C1=O`, the IC50 is 183 µM.
In the case of `O=C1OC(=O)c2cccc3cccc1c23` [1,8-NAPHTHALIC ANHYDRIDE], the IC50 was determined as 1770 µM.
On to `CC(C)c1ccc2c(c1)CCC1[C@@](C)(CN3C(=O)c4cccc5cccc(c45)C3=O)CCC[C@]21C` (some centres not stated), for which the IC50 came out at 166 µM.
In the case of `Cc1ccc(Nc2c([N+](=O)[O-])cc3c4c(cccc24)C(=O)N(c2ccc(C)cc2)C3=O)cc1`, the IC50 worked out at 42.2 µM.
Turning to `CCCN1C(=O)c2cccc3cccc(c23)C1=O`, the IC50 is 179 µM.
`O=C1c2cccc3cccc(c23)C(=O)N1Nc1ccccc1`: the IC50 is 147 µM.
As to `CCCCNc1ccc2c3c(cccc13)C(=O)N(CCCC)C2=O`, the IC50 was found to be 320 µM.
As for `O=C1OC(=O)c2cc([N+](=O)[O-])c(Br)c3cccc1c23`, the IC50 amounted to 54 µM.
Still for that read-out and setting: to `O=C1c2cccc3c(NCc4ccccc4)c([N+](=O)[O-])cc(c23)C(=O)N1Cc1ccccc1` belongs 43.1 µM; to `O=C1c2cccc3cccc(c23)C(=O)N1Cc1ccccc1`, 143 µM.
Take `CC(C)c1ccc2c(c1)CCC1[C@@](C)(CN3C(=O)c4cccc5c(Br)ccc(c45)C3=O)CCC[C@]21C` (some centres not stated): the IC50 amounted to 208 µM.
Regarding `NN1C(=O)c2cccc3cccc(c23)C1=O`, the IC50 was determined as 187 µM.
